Measurements reported in patent US6333337A, “Potassium channel inhibitors” (ICAgen, Inc., priority 1999, dated 2001).

What was measured:
[1] = biological target: T1, human Kv1.5 (Homo sapiens, UniProt P22460); assay: 86Rb efflux assay, inhibition of 86Rb efflux through Kv1.5 potassium channels expressed in CHO cells; format: cell-based; conditions: Kv1.5 in CHO cells, 70 mM KCl, 1 minute
T1 construct: expressed in transfected cells
Description: Cells stably transfected with cDNA for human Kv1.5 (in pcDNA3 vector) were grown as confluent monolayers in 96 well tissue culture plates in MEM alpha with 10% heat inactivated fetal bovine serum and 400 μg/ml G418. Cells were incubated overnight in growth media containing 1 μCi/ml ^86 Rb to permit intracellular uptake of the isotope. At the end of the incubation period, the ^86 Rb solution was aspirated and the cells washed three times with Earls Balanced Salt Solution (EBSS) which contained (in mM) 132 NaCl 5.4 KCl, 1.8 CaCl2, 0.8 mM MgCl2 10 mM HEPES and 5 mM glucose. The cells were then preincubated for 10 minutes at room temperature in 100 μl/well of EBSS or EBSS containing test compounds. At the end of this period the wells were aspirated and to each well was then added 100 μl of a modified EBSS solution containing 70 mM KCl (NaCl replaced by KCl) and the compound to be tested. The high KCl concentration was utilized to depolarize the cells to membrane potentials that would activate Kv1.5 channels. After a 1 minute incubation in 70 mM KCl EBSS plus test compound, the solution was removed and placed into the appropriate well of a 96 well counting plate for analysis. Finally 100 μl of 0.1% sodium docecyl sulfate in EBSS was added to each well to lyse the cells. The lysate was taken for analysis to determine final cell content of ^86 Rb. Samples were counted in a Wallac Microbeta liquid scintillation counter by Cerenkov emission. Efflux was expressed as a percentage of the initial cell content of ^86 Rb.
The testing results of selective compounds from Tables 1A-C using this assay are reported in Table 2 (flux) as the potency for inhibition of ^86 Rb efflux through Kv1.5 potassium channels expressed in CHO cells by compounds of the invention.

[2] = biological target: T2, Kv1.5 potassium channel (Homo sapiens, UniProt P22460); assay: Electrophysiological studies, whole cell patch clamp, inhibition of Kv1.5 potassium currents in Chinese hamster ovary cells; format: cell-based; conditions: CHO cells
T2 construct: expressed in transfected cells
T2 sequence (P22460 whole entry): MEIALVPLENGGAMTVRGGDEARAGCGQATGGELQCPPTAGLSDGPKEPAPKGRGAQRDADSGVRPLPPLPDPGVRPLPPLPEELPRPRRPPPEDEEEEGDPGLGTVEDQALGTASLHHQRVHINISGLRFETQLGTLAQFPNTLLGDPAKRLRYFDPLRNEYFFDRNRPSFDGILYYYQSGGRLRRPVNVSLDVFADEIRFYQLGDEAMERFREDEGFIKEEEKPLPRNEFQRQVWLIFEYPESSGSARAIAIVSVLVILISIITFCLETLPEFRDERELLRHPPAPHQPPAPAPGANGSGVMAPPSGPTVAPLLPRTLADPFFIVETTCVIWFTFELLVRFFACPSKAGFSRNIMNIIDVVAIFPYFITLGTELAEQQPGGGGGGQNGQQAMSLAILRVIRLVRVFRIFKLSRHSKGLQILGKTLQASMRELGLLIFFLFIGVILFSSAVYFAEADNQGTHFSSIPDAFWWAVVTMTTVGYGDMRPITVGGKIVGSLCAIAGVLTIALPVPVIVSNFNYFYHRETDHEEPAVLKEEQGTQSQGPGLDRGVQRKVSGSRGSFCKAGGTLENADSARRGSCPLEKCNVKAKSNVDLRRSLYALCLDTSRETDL
Description: Electrophysiological recordings of potassium currents in Chinese hamster ovary cells stably expressing the gene construct for the Kv1.5 potassium channel subunit were performed using the whole cell configuration of the patch clamp technique (Hamill et al., Pflugers Archiv 391:85, 1981). Cell lines expressing Kv1.5 were prepared using standard techniques known to those skilled in the art. Cells were plated on glass coverslips at a density of 2×10^4 cells/coverslip and used within 24-48 hours. Solutions used for electrophysiological recordings were as follows. Extracellular bathing solutions contained (in mM) 132 NaCl, 5.4 KCl, 1.8 CaCl2, 0.8 MgCl2, 10 HEPES, 5 glucose at pH 7.3. Electrode pipette solutions for measuring Kv1.5 contain (in mM) 100 KCl 5 NaCl, 2 MgCl2, 5 mM EGTA, 10 mM HEPES and 5 glucose at pH 7.4, 295 mOsm. The coverslips were placed in a small chamber (volume ~200 μl) on the mechanical stage of an inverted microscope and perfused (2 ml/min) with extracellular recording solution. Drug was applied using a series of narrow-bore glass capillary tubes (inner diameter ~100 μm) positioned approximately 200 μm from the cell.

T1 sequence (P22460 whole entry): as above

Row | IC50 [1] [nM] | IC50 [2] [nM] | Structure (SMILES)
1 | 12000 | – | COc1cc(C)c(S(=O)(=O)NC2c3cc(NC(=O)c4ccccc4)ccc3CCC2O)c(C)c1C (stereo not drawn) [Entry 110]
2 | > 50000 | 500 | CCc1ccc(S(=O)(=O)N[C@H]2c3cc(NCc4ccc(OC(F)(F)F)cc4)ccc3CC[C@@H]2O)cc1 (relative stereo) [Entry 60, trans-N1-(4-ethylphenylsulfonyl)-N7-(4-trifluoromethoxybenzyl)-1,7-diamino-1,2,3,4-tetrahydro-2-naphthalenol]
3 | 2900 | 50 | CCCCc1ccc(S(=O)(=O)NC2c3cc(NC(=O)c4cccc(OC)c4)ccc3CCC2O)cc1 (stereo not drawn) [Entry 19]
4 | – | 200 | CCc1ccc(S(=O)(=O)NC2c3cc(N(Cc4cccnc4)C(=O)C4CC4)ccc3CCC2O)cc1 (stereo not drawn) [Entry 162]
5 | > 50000 | 400 | CCc1ccc(S(=O)(=O)NC2c3cc(NC(=O)c4ccccc4OC)ccc3CCC2O)cc1 (stereo not drawn) [Entry 13]
6 | 46000 | – | CCCc1ccc(S(=O)(=O)NC2c3cc(NC(=O)c4ccc([N+](=O)[O-])cc4)ccc3CCC2O)cc1 (stereo not drawn) [Entry 85]
7 | 9000 | – | CCc1ccc(C(=O)Nc2ccc3c(c2)C(NS(=O)(=O)c2ccc(C(C)C)cc2)C(O)CC3)cc1 (stereo not drawn) [Entry 40]
8 | 20000 | – | CCc1ccc(S(=O)(=O)NC2c3cc(NC(=O)c4cccs4)ccc3CCC2O)cc1 (stereo not drawn) [Entry 103]
9 | – | 100 | CCc1ccc(S(=O)(=O)NC2c3cc(NC(=O)C4CCCN4Cc4cccc(Cl)c4)ccc3CCC2O)cc1 (stereo not drawn) [Entry 135]
10 | 5900 | 90 | CCc1ccc(S(=O)(=O)NC2c3cc(NC(=O)C#Cc4ccccc4)ccc3CCC2O)cc1 (stereo not drawn) [Entry 28]
11 | 5900 | 600 | CCc1ccc(S(=O)(=O)NC2c3cc(NC(=O)C4Cc5ccccc5CN4CC)ccc3CCC2O)cc1 (stereo not drawn) [Entry 24]
12 | 6800 | 250 | CCc1ccc(S(=O)(=O)NC2c3cc(NC(=O)c4cccc(OC)c4)ccc3CCC2O)cc1 (stereo not drawn) [Entry 1]
13 | 39000 | – | Cc1cccc(C(=O)Nc2ccc3c(c2)C(NS(=O)(=O)c2cccc(C)c2)C(O)CC3)c1 (stereo not drawn) [Entry 97]
14 | – | 600 | CCc1ccc(S(=O)(=O)NC2c3cc(NC(=O)c4cccc(OC)c4)ccc3CCC2O)cc1 (stereo not drawn) [Entry 158]
15 | – | 500 | CCc1ccc(S(=O)(=O)N(Cc2cccnc2)C2c3cc(NC(=O)c4cccc(OC)c4)ccc3CCC2O)cc1 (stereo not drawn) [Entry 132]
16 | – | 100 | CCc1ccc(S(=O)(=O)NC2c3cc(N(Cc4cccnc4)C(=O)C4CC4)ccc3CCC2O)cc1 (stereo not drawn) [Entry 123]
17 | 29000 | 2100 | COc1cccc(C(=O)Nc2ccc3c(c2)C(NS(=O)(=O)Cc2ccccc2)C(O)CC3)c1 (stereo not drawn) [Entry 70]
